{"source": "patent US8487130B2", "about": "“Menthylcarboxamides and their use as cooling agents” (International Flavors & Fragrances Inc., priority 2009, dated 2013)", "format_in_all_cases": "in vivo", "key": {"[1]": {"tested_on": "descriptive analysis panel", "test": "Chewing gum cooling evaluation by descriptive analysis panel", "conditions": "gum blended with Structure I", "protocol": "The following gum base formulation was prepared: [table] Structure I by itself and in separate mixtures with monomenthyl glutarate, 2-isopropyl-N,2,3-trimethylbutyramid, N-ethyl-p-menthanecarboxamide and menthyl acetoacetate at levels detailed in the Tables below was blended with the gum base in a Sigma mixer. The resultant chewing gum blend was then manufactured into strips 1 inch in width and 0.1 inches in thickness. These strips were cut into lengths of 3 inches each. […] Samples were profiled by a highly trained descriptive analysis panel. The ballot consisted of the following terms: Total impact, total mint, cooling-mouth closed, cooling-breath in, nasal cooling—breath in, throat irritation, bitterness, tongue irritation, numbing. Each attribute was rated at discrete time points including 5 secs, 30 secs, 90 secs, 3 mins, 5 mins, 7 mins, 10 mins, 15 mins, 20 mins, and 30 mins. The following table details the panelist's results for the combination of Structure I with monomenthyl glutarate, 2-isopropyl-N,2,3-trimethylbutyramid, N-ethyl-p-menthanecarboxamide and menthyl acetoacetate at 3 minutes, 8 minutes, 20 minutes and 30 minute, 40 minute and 50 minute intervals. The amounts are listed in weight percent."}, "[2]": {"test": "Flavor evaluation, tasted in water", "conditions": "for flavor evaluation: cooling: 40 ppm in water"}, "[3]": {"test": "Flavor evaluation, tasted in water", "conditions": "40 ppm in water", "text": "Flavor Evaluation of Structure I\nFlavor evaluation of the (2S,5R)—N-[4-(4-Amino-4-oxobutyl)phenyl]-5-methyl-2-(propan-2-yl)cyclohexanecarboxamide in water at concentration 40 ppm: […]"}}, "note": "“Also recorded” adds a separate entry of the source."}
{"smiles": "CC(C)[C@@H]1CC[C@@H](C)CC1C(=O)Nc1ccc(CC(N)=O)cc1", "note": "(stereo partly drawn) [Structure I, (2S,5R)—N-[4-(2-Amino-2-oxoethyl)phenyl]-5-methyl-2-(propan-2-yl)cyclohexanecarboxamide]", "values": [{"measurement": "panelist comment", "setting": "[1]; Panelist 1, 11:05 (start 11:04)", "result": "Bitter, Brown, Sweet, slightly Vanilla"}, {"measurement": "panelist comment", "setting": "[1]; Panelist 1, 11:06 (start 11:04)", "result": "Start to notice cooling"}, {"measurement": "panelist comment", "setting": "[1]; Panelist 1, 11:08 (start 11:04)", "result": "Moderate cooling"}, {"measurement": "panelist comment", "setting": "[1]; Panelist 1, 11:11 (start 11:04)", "result": "Moderate cooling in mouth and now back of the throat; nice on breath in; also recorded: Continued long lasting cooling"}, {"measurement": "panelist comment", "setting": "[1]; Panelist 1, 11:15 (start 11:04)", "result": "Slight cooling moving to the front of the mouth"}, {"measurement": "panelist comment", "setting": "[1]; Panelist 1, 11:18 (start 11:04)", "result": "Stable cooling all over, nice level"}, {"measurement": "panelist comment", "setting": "[1]; Panelist 1, 11:22 (start 11:04)", "result": "Long lasting"}, {"measurement": "panelist comment", "setting": "[1]; Panelist 2, 11:04 (start)", "result": "Very sweet, brown"}, {"measurement": "panelist comment", "setting": "[1]; Panelist 2, 11:07 (start 11:04)", "result": "Started to notice cooling on breath and tip of the tongue"}, {"measurement": "panelist comment", "setting": "[1]; Panelist 2, 11:09 (start 11:04)", "result": "Started to notice on back of throat, continued to build in the rest of the mouth"}, {"measurement": "panelist comment", "setting": "[1]; Panelist 2, 11:11 (start 11:04)", "result": "Cooling consistent throughout mouth, slight irritation on the back of the throat"}, {"measurement": "panelist comment", "setting": "[1]; Panelist 2, 11:15 (start 11:04)", "result": "Cooling level the same"}, {"measurement": "panelist comment", "setting": "[1]; Panelist 2, 11:24 (start 11:04)", "result": "Still getting a good amount of cooling"}, {"measurement": "panelist comment", "setting": "[1]; Panelist 2, 12:07 (start 11:04)", "result": "Cooling is gone"}, {"measurement": "panelist comment", "setting": "[1]; Panelist 3, 11:07 (start 11:04)", "result": "Cooling on the back of the throat"}, {"measurement": "panelist comment", "setting": "[1]; Panelist 3, 11:14 (start 11:04)", "result": "Concentrated on the back of the throat; irritating"}, {"measurement": "panelist comment", "setting": "[1]; Panelist 3, 11:22 (start 11:04)", "result": "Full cooling after 20 min"}, {"measurement": "panelist comment", "setting": "[1]; Panelist 4, 11:07 (start 11:04)", "result": "Cooling perception begins (mild)"}, {"measurement": "panelist comment", "setting": "[1]; Panelist 4, 11:09 (start 11:04)", "result": "Cooling pleasant, builds to moderate cooling on the front/tip of tongue"}, {"measurement": "panelist comment", "setting": "[1]; Panelist 4, 11:11 (start 11:04)", "result": "Intensity max reached"}, {"measurement": "panelist comment", "setting": "[1]; Panelist 4, 11:14 (start 11:04)", "result": "Cooling plateau, maintained. Delocalized all over mouth"}, {"measurement": "panelist comment", "setting": "[1]; Panelist 4, 11:19 (start 11:04)", "result": "Remains intense"}, {"measurement": "panelist comment", "setting": "[1]; Panelist 4, 11:20 (start 11:04)", "result": "Moves to throat (mild) very intense on tip of the tongue and center"}, {"measurement": "panelist comment", "setting": "[1]; Panelist 4, 11:24 (start 11:04)", "result": "Still cooling"}, {"measurement": "panelist comment", "setting": "[1]; Panelist 4, 12:00 (start 11:04)", "result": "Cooling remains"}, {"measurement": "panelist comment", "setting": "[1]; Panelist 4, 12:15 (start 11:04)", "result": "Cooling diminished significantly"}, {"measurement": "duration of cooling", "setting": "[2]; 1 ppm in water", "result": 30, "unit": "min"}, {"measurement": "flavor properties (cooling) when tasted in water", "setting": "[2]; 1 ppm in water", "result": "clean with slight cooling up front that builds with time to moderate level"}, {"measurement": "flavor properties (cooling) when tasted in water", "setting": "[2]; 10 ppm in water", "result": "moderate throat and mouth cooling that lingers with some bitter notes in background"}, {"measurement": "duration of cooling", "setting": "[2]; 10 ppm in water, with breath in", "result": 30, "unit": "min"}]}
{"smiles": "CC(C)[C@@H]1CC[C@@H](C)CC1C(=O)Nc1ccc(CCCC(N)=O)cc1", "note": "(stereo partly drawn) [(2S,5R)—N-[4-(4-Amino-4-oxobutyl)phenyl]-5-methyl-2-(propan-2-yl)cyclohexanecarboxamide]", "values": [{"measurement": "flavor evaluation: onset and character of cooling", "setting": "[3]", "result": "Late onset of cooling after expectorating, peppery on tip of tongue and back of throat, cooling on tip, irritating on back of throat—sore throat, cooling building on tip of tongue, peppery in esophagus"}, {"measurement": "flavor evaluation: taste", "setting": "[3]", "result": "Umami! Ribotide-like. Umami upfront"}, {"measurement": "flavor evaluation: cooling", "setting": "[3]; after 20 minutes", "result": "Still going strong after 20 minutes and cooling on gums"}, {"measurement": "flavor evaluation: cooling", "setting": "[3]; ~40 sec", "result": "cooling just beginning, throat irritation, slight numbing on tip of tongue, mouth-watering, mouth coating—all over"}, {"measurement": "flavor evaluation: cooling", "setting": "[3]; ~7 minutes", "result": "continuing to build"}, {"measurement": "flavor evaluation: cooling", "setting": "[2]; 30 minutes", "result": "localized on tip"}, {"measurement": "flavor evaluation: cooling", "setting": "[2]; ~3.5 minutes", "result": "beginning to build"}]}
